pIC50: −log10 of the molar value.
Assay: Average concentration of compound to cause 50% inhibition of topoisomerase-1 isolated from calf thymus

| Structure (SMILES) | pIC50 |
| --- | --- |
| CC[C@@]1(O)C(=O)OCc2c1cc1n(c2=O)Cc2c-1nc1cc3c(cc1c2C[n+]1ccccc1)OCCO3 [8-ethyl-8-hydroxy-15-(1-pyridiniumylmethyl)-(8S)-2,3,8,9,12,14-hexahydro-11H-[1,4]dioxino[3,2-g]pyrano[3',4':6,7]indolizino[1,2-b]quinoline-9,12-dione] | 6.72 |
| CC[C@@]1(O)C(=O)OCc2c1cc1n(c2=O)Cc2c-1nc1cc3c(cc1c2C[n+]1ccncc1)OCCO3 [8-ethyl-8-hydroxy-15-pyrazin-1-ium-1-ylmethyl-(8S)-2,3,8,9,12,14-hexahydro-11H-[1,4]dioxino[3,2-g]pyrano[3',4':6,7]indolizino[1,2-b]quinoline-9,12-dione] | 6.74 |
